Experiments:
[1] = system: cortex culture containing neurons and glia; assay: Brain cell protection in apoptosis induced by oxygen-glucose deprivation (OGD)/reoxygenation, LDH release; format: cell-based, rat; conditions: for protective effect on brain cells (apoptosis, % LDH release): OGD then 24 hours normoxic, 6 concentrations, FIG. 1
Experimental: A […] cortex culture medium containing neurons and glia was obtained from fetal rats during the gestation period of 17 to 18 days. That is, an embryonic tissue was extracted from a pregnant Sprague-Dawley and transferred to a Hanks Balanced Salt solution (Gibco) cooled with ice. The cortical brain tissue was sterile and thinly dissected and stored in cold HBSS before digestion with 0.0125% trypsin. The isolated cells were placed in a 96 well plate coated with poly-L-lysine (1 mg/ml, Sigma-Aldrich) in a Dulbecco's modified eagle medium (Gibco) containing 10% iron-supplemented fetal calf serum (Hyclone) and 1% antibiotic/antimycotic (Gibco) at 37° C. at a seeding density of 50,000 cells/well. Then, after attaching the culture medium overnight in a 37° C. incubator containing 5% CO2 and atmospheric oxygen, at the next day, the medium was replaced with a warm Neurobasal A medium (Gibco) containing 0.5 mmol/L of L-glutamine (Gibco) and supplemented with 1% B27, N2 and antibiotics/antimycotic (Gibco). In the culture for 14 to 16 days, half of the medium was changed every 4 days. After 14 days of cell culture, the culture medium was replaced with a vehicle (0.1% DMSO or EtOH) or an oxygen-free-glucose Neurobasal A containing an experimental substance (RA1, naringenin or lipoic acid) at 6 concentrations. After oxygen-glucose deprivation (OGD), the same volume of Neurobasal A with the same novel substance concentration was added and transferred to a normoxic condition (5% CO2 and atmospheric oxygen) state for 24 hours. Cellular activity was evaluated by measuring LDH release of damaged cells. The effects of lipoic acid, naringenin, and the novel substance RA1 on apoptosis (% LDH release) following ischemia/reoxygenation-reperfusion (I/R) were performed in the in vitro cell culture.

[2] = system: cortex culture containing neurons and glia; assay: Total antioxidant capacity assay after OGD and I/R (Antioxidant Assay Kit); format: cell-based, rat; conditions: FIG. 2
Experimental: Several groups of plates were subjected to the OGD (oxygen-glucose deprivation) and I/R (ischemia-reperfusion), and the total antioxidant capacity was measured using a general commercial instrument (Antioxidant Assay Kit, Sigma-Aldrich). The average value of the three experiments was obtained and the antioxidant capacity was expressed in […].

[3] = system: cerebral infarction site; assay: Transient middle cerebral artery occlusion (t-MCAO), administration immediately before artery occlusion; format: in vivo, Sprague-Dawley rats; conditions: for size of the cerebral infarction site compared to the vehicle: 30 min occlusion, 5 h 30 min reperfusion, FIG. 3(A); for size of the cerebral infarction site, dependence on concentration: FIG. 3(B) and (C)
Experimental: As a research model for cerebral infarction, transient middle cerebral artery occlusion (t-MCAO) in animals (rats) was used to examine the infarct size of the cerebral infarction site and the degree of its protective action. First, in an animal model in which the middle cerebral artery of Sprague-Dawley rats (300 to 350 g; Charles River, Montreal, PQ, CAN) was closed for 30 minutes to create a cerebral infarction and then reperfused for 5 hours and 30 minutes (t-MCAO), naringenin and RA1 (VANL-100) were administered immediately before artery occlusion and compared with a case of administration of a vehicle.

[4] = molecular target: mushroom tyrosinase; assay: Inhibitory effect on tyrosinase; format: biochemical; conditions: L-tyrosine substrate, pH 6.5, 37° C., 30 minutes; read-out: Inhibition of tyrosinase
Experimental: The inhibitory effect on tyrosinase related to skin whitening and melanin formation was measured using the following experimental method. 10 μL of each sample solution at a different concentration and 20 μL of mushroom tyrosinase in a phosphate buffer (pH 6.5) were added to a 96-well microplate and added with 170 μL of a mixed solution in which a 1 mM L-tyrosine solution, a 50 mM potassium phosphate buffer (pH 6.5) and distilled water were contained in a ratio of 10:10:9. Samples dissolved in DMSO were diluted 30 times with distilled water and used. After incubation at 37° C. for 30 minutes, the absorbance of the reaction solution was measured at 490 nm using a GENios microplate reader (Tecan Austria GmbH, Austria). The inhibition degree of tyrosinase by the addition of the sample was expressed as a 50% inhibition rate (IC50).

[5] = Antioxidant capacity, radical scavenging ability by DPPH (Blois method); conditions: absorbance at 517 nm
Experimental: The antioxidant capacity of the novel compounds was measured by using a Blois method of measuring radical scavenging ability by DPPH which was widely known. A solution of DPPH by concentration was prepared in ethanol, and the initial absorbance was measured at 517 nm, and the absorbance over time was measured by adding a solution of the novel compound and the DPPH solution. The antioxidant capacity was expressed in % and an IC50 value was obtained using a calculation program.

IC50 [4] | Compound | Antioxidant capacity (%) [5] | also measured
32 µM | O=C(CCCCC1CCSS1)Oc1cc(O)c2c(c1)OC(c1ccc(O)cc1)CC2=O (stereo not shown) [RA1, 5-hydroxy-2-(4-hydroxyphenyl)-4-oxochroman-7-yl 5-(1,2-dithiolan-3-yl)pentanoate] | – | strength of protective effect on brain cells at a very low concentration ([1]; FIG. 1D, comparison with lipoic acid and naringenin): about 100 times; protective effect on brain cells (apoptosis, % LDH release) [1]: very strong protective effect; total antioxidant capacity ([2]; 2.5 to 1250 ummol/L): strong protective effect; size of the cerebral infarction site compared to the vehicle [3]: significantly reduced; size of the cerebral infarction site, dependence on concentration [3]: reduced the size of the cerebral infarction site depending on a concentration; effective concentration, times lower than naringenin (10 mg/kg) ([3]; RA1 1×10^−3 mg/kg against naringenin 10 mg/kg): 10,000 times; size of the cerebral infarction site ([3]; RA1 at 1×10^−3 mg/kg): strongly reduced; protective effect on brain cells, times stronger than naringenin or lipoic acid ([3]; animal brain infarction model, very low concentration): ~10,000 times
225 µM | O=C(CCCCC1CCSS1)OCCOCCOc1cc(O)c2c(c1)OC(c1ccc(O)cc1)CC2=O (stereo not shown) [RA5, 2-(2-((5-hydroxy-2-(4-hydroxyphenyl)-4-oxochroman-7-yl)oxy)ethoxy) ethyl 5-(1,2-dithiolan-3-yl)pentanoate] | 28.5% | –
> 350 µM | O=C(CCCCC1CCSS1)OCCOCCOCCOCCOCCOCCOc1cc(O)c2c(c1)OC(c1ccc(O)cc1)CC2=O (stereo not shown) [RA9, 17-((5-hydroxy-2-(4-hydroxyphenyl)-4-oxochroman-7-yl)oxy)-3,6,9,12,15-pentaoxaheptadecyl 5-(1,2-dithiolan-3-yl)pentanoate] | 24% | –
58 µM | O=C(CCCCC1CCSS1)Oc1ccc(C2CC(=O)c3c(O)cc(O)cc3O2)cc1 (stereo not shown) [RA2, 4-(5,7-dihydroxy-4-oxochroman-2-yl)phenyl 5-(1,2-dithiolan-3-yl)pentanoate] | 77% | –
> 350 µM | O=C(CCCCC1CCSS1)OCCOCCOCCOCCOc1cc(O)c2c(c1)OC(c1ccc(O)cc1)CC2=O (stereo not shown) [RA7, 2-(2-(2-(2-((5-hydroxy-2-(4-hydroxyphenyl)-4-oxochroman-7-yl)oxy)ethoxy)ethoxy)ethoxy)ethyl 5-(1,2-dithiolan-3-yl)pentanoate] | – | –
> 350 µM | O=C(CCCCC1CCSS1)OCCOCCOCCOCCOCCOc1cc(O)c2c(c1)OC(c1ccc(O)cc1)CC2=O (stereo not shown) [RA8, 14-((5-hydroxy-2-(4-hydroxyphenyl)-4-oxochroman-7-yl)oxy)-3,6,9,12-tetraoxatetradecyl 5-(1,2-dithiolan-3-yl)pentanoate] | 11.5% | –
133 µM | O=C(CCCCC1CCSS1)Oc1ccc(C2CC(=O)c3c(O)cc(OC(=O)CCCCC4CCSS4)cc3O2)cc1 (stereo not shown) [RA3, 4-(7-((5-(1,2-dithiolan-3-yl)pentanoyl)oxy)-5-hydroxy-4-oxochroman-2-yl)phenyl 5-(1,2-dithiolan-3-yl)pentanoate] | 12.4% | –
350 µM | O=C(CCCCC1CCSS1)OCCOCCOCCOc1cc(O)c2c(c1)OC(c1ccc(O)cc1)CC2=O (stereo not shown) [RA6, 2-(2-(2-((5-hydroxy-2-(4-hydroxyphenyl)-4-oxochroman-7-yl)oxy)ethoxy)ethoxy)ethyl 5-(1,2-dithiolan-3-yl)pentanoate] | 14.6% | –

Second part, the compound before the results:

Compound | IC50 [4] | Antioxidant capacity (%) [5] | also measured
O=C(CCCCC1CCSS1)OCCOc1cc(O)c2c(c1)OC(c1ccc(O)cc1)CC2=O (stereo not shown) [RA4, 2-((5-hydroxy-2-(4-hydroxyphenyl)-4-oxochroman-7-yl)oxy)ethyl 5-(1,2-dithiolan-3-yl)pentanoate] | 260 µM | 22% | –
OC[C@H]1O[C@@H](Oc2ccc(O)cc2)[C@H](O)[C@@H](O)[C@@H]1O [Arbutin, reference compound] | 266 µM | 36% | –
O=C(O)CCCC[C@@H]1CCSS1 (racemic) [Lipoic acid] | 44 µM | 66.8% | protective effect on brain cells (apoptosis, % LDH release) [1]: hardly showed a protective effect; total antioxidant capacity ([2]; 0.25 and 25 ummol/L): no antioxidant effect; total antioxidant capacity ([2]; high concentrations of 125 and 1250 ummol/L): great antioxidant capacity
O=c1cc(CO)occ1O [Kojic acid, reference compound] | – | 28% | –
O=C1C[C@@H](c2ccc(O)cc2)Oc2cc(O)cc(O)c21 [Naringenin] | 82 µM | 58.5% | protective effect on brain cells (apoptosis, % LDH release) [1]: slight effect at one concentration; size of the cerebral infarction site compared to the vehicle [3]: significantly reduced; size of the cerebral infarction site, dependence on concentration [3]: reduced the size of the cerebral infarction site depending on a concentration
